For data set [1] the following is noted: media of pH 1, 4.5 and 6.8; 120 min; at the time of manufacture.
Protocol: All experiments were performed in triplicate with 25 mg of the specific drug, or an equivalent amount of drug-loaded SNEDDS (300 µl) using USP apparatus II (DT 800 LH, ERWEKA GmbH, Langen, Germany). Dissolution was studied in 0.1 N hydrochloric acid (pH 1.0), acetate buffer USP (pH 4.5), and phosphate buffer USP (pH 6.8). All experiments were performed in a media volume of 500 ml at 37 ± 0.5 °C using a paddle speed of 100 rpm. All samples were withdrawn automatically using a fraction collector, equipped with cannula filters of 10 µm pore size and manually diluted 1:1 (v/v) with acetonitrile before HPLC analysis.
The nature of data set [2]: Saturation solubility of the drug in individual excipients. The format is physicochemical. Conditions: 37 °C, 24 h. Here is the method:
The saturation solubility of each drug in each of the individual excipients was investigated in triplicate by the following procedure: first, drug and excipients were blended in 2-ml safe lock test tubes ([17], [23], [26]). After short, intense vortex mixing, the mixtures were agitated at 1000 rpm for 24 h at 37 °C under light protection using a ThermoMixer® C (Eppendorf AG, Hamburg, Germany) to achieve an equilibrium state ([7], [12], [16], [17], [23], [26], [27]). […] After centrifugation at 37 °C, a defined mass (50 mg) of the supernatant was withdrawn and transferred to a 25-ml volumetric flask, and the sample was diluted with methanol to a total volume of 25.0 ml. Finally, a sample of 1 ml was analyzed using one of the previously described drug-specific HPLC methods.

As to `CC(C)OC(=O)C(C)(C)Oc1ccc(C(=O)c2ccc(Cl)cc2)cc1` [Fenofibrate], the Dissolution behaviour result in data set [1] is listed as “poor solubility”.

As for `Cc1ccc(-c2cc(C(F)(F)F)nn2-c2ccc(S(N)(=O)=O)cc2)cc1` [Celecoxib], the “Solubility in Miglyol 812” value in data set [2] is listed as “exceptionally low solubility”. For the same compound, the Solubility in co-solvents result in data set [2] (Tetra EG, Transcutol HP, Carbowax PEG 400) is recorded as “high solubility”. Also, the Dissolution behaviour result in data set [1] is recorded as “poor solubility”.
